Results on 19 compounds are retold here after US20230365563A1, “QUINAZOLINE COMPOUND AND APPLICATION THEREOF” (SHANGHAI PHARMACEUTICALS HOLDING CO., LTD., priority 2020, published 2023).

pIC50: −log10 of the molar value. Structures can show the parent of a compound that is named as a salt.

The pIC50 is the IC50 on a negative log10 scale, so that one unit is a factor of ten.

One assay has as its target T1, KRAS_G12D and cRAF (Homo sapiens, UniProt P01116, G12D).
T1 construct: purchased
The assay can be described thus: Inhibition of KRAS_G12D/cRAF binding (Cisbio binding kit, 665/615 ratio), Effect Embodiment B. The settings on record: read-out: GTP-KRAS-G12D:CRAF IC50. In outline: (§1)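 Duplicate wells received an eleven-point, threefold compound titration whose top point was the stock solution; final DMSO 1%.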

For a further assay, the target named is T2, KRAS_WT and SOS1 (Homo sapiens, UniProt P01116).
T2 construct: purchased
The assay can be described thus: Inhibition of KRAS_WT/SOS1 binding (Cisbio binding kit, 665/615 ratio), Effect Embodiment C. The settings on record: read-out: GTP-KRAS-WT:SOS1 IC50. The method, boiled down:
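Compounds tested as 3-fold, 11-point dilutions in duplicate at 1% DMSO final against the KRAS_WT/SOS1 binding system. IC50 derived by nonlinear regression fit.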

Another assay deals with T3, KRAS-G12D and SOS1 (Homo sapiens, UniProt P01116, G12D).
T3 construct: purchased
The assay can be described thus: Inhibition of KRAS-G12D/SOS1 binding (Cisbio binding kit, 665/615 ratio), Effect Embodiment A. The settings on record: read-out: GTP-KRAS-G12D:SOS1 IC50. The method, boiled down:
as §1

T1 sequence (P01116 1-188 isoform P01116-2 G12D): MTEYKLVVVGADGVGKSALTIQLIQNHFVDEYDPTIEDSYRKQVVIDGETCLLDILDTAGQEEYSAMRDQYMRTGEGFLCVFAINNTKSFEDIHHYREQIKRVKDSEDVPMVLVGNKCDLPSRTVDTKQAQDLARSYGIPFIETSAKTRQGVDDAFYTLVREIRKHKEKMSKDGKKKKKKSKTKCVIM
T3 sequence (P01116 1-188 isoform P01116-2 G12D): as above
T2 sequence (P01116 1-188 isoform P01116-2): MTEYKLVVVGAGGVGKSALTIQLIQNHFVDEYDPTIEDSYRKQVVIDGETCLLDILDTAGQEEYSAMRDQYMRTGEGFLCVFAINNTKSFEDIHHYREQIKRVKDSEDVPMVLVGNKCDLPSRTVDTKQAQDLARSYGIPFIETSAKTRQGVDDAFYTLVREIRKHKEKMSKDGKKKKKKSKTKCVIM

For `Oc1cc(-c2c(Cl)cc3c(N4CC5CCC(C4)N5)nc(OCCCN4C5CC6CC4CC(C5)O6)nc3c2F)c2ccccc2c1` (single isomer, unassigned) [Compound 235, 4-((S or R)-2-(3-((1R,3R,5R,7R)-2-oxa-6-azadamantan-6-yl)propoxy)-4-((1R,5S)-3,8-diazabicyclo[3.2.1]octan-3-yl)-6-chloro-8-fluoroquinazolin-7-yl)naphthalen-2-ol formate], the negative logarithm of the IC50 (pIC50) at KRAS_G12D and cRAF is 6.83; at KRAS_WT and SOS1, 5.75; at KRAS-G12D and SOS1, 7.28.
In the same order, the values of `CN1CCC[C@H]1COc1nc(N2CC3CCC(C2)N3)c2cc(Cl)c(-c3c(F)c(O)cc4ccccc34)c(F)c2n1` (single isomer, unassigned) [Compound 195b, (S or R)-4-(4-((1R,5S)-3,8-diazabicyclo[3.2.1]octan-3-yl)-6-chloro-8-fluoro-2-((S)-1-methylpyrrolidin-2-yl)methoxy)quinazolin-7-yl)-3-fluoronaphthalen-2-ol formate] are 6.48, 5.19 and 7.24.
In the same order, the values of `C[C@H]1COC[C@H](C)N1CCCOc1nc(N2CC3CCC(C2)N3)c2cc(Cl)c(-c3cc(O)cc4ccccc34)c(F)c2n1` (single isomer, unassigned) [Compound 180, 4-((R or S)-4-((1R,5S)-3,8-diazabicyclo[3.2.1]octan-3-yl)-6-chloro-2-(3-((3S,5S)-3,5-dimethylmorpholinyl)propoxy)-8-fluoroquinazolin-7-yl)naphthalen-2-ol diformate] are 6.59, 5.41 and 7.06.
On the same counts, the results for `Oc1cc(-c2c(Cl)cc3c(N4CC5CCC(C4)N5)nc(OCCN4C5CCC4COC5)nc3c2F)c2ccccc2c1` (single isomer, unassigned) [Compound 124, 4-((7S or R)-2-(2-(3-oxa-8-azabicyclo[3.2.1]octan-8-yl)-ethoxy)-4-((1R,5S)-3,8-diazabicyclo[3.2.1]octan-3-yl)-6-chloro-8-fluoroquinazolin-7-yl)naphthalen-2-ol dihydrochloride] are 6.83, 5.54 and 7.12.
`C[C@@H](COc1nc(N2CC3CCC(C2)N3)c2cc(Cl)c(-c3cc(O)cc(Cl)c3C3CC3)c(F)c2n1)CN1C2CCC1COC2` (single isomer, unassigned) [Compound 227, 3-((7S or 7R)-2-((2R)-3-(3-oxa-8-azabicyclo[3.2.1]octan-8-yl)-2-methylpropoxy)-4-((1R,5S)-3,8-diazabicyclo[3.2.1]octan-3-yl)-6-chloro-8-fluoroquinazolin-7-yl)-5-chloro-4-cyclopropylphenol formate]: the pIC50 is 7.63 at KRAS_G12D and cRAF; 6.23 at KRAS_WT and SOS1; 7.78 on KRAS-G12D and SOS1.
On the same counts, the results for `C[C@H]1COCCN1CCCOc1nc(N2C[C@H]3CC[C@@H](C2)N3)c2cc(Cl)c(-c3cc(O)cc4ccccc34)c(F)c2n1` (single isomer, unassigned) [Compound 174, (R or S)-4-(4-((1R,5S)-3,8-diazabicyclo[3.2.1]octan-3-yl)-6-chloro-8-fluoro-2-(3-((S)-3-methylmorpholinyl)propoxy)quinazolin-7-yl)naphthalen-2-ol diformate] are 6.77, 5.74 and 7.24.
On the same counts, the results for `C[C@@H](COc1nc(N2CC3CCC(C2)N3)c2cc(Cl)c(-c3cc(O)cc4ccccc34)c(F)c2n1)CN1C[C@H](C)OC[C@@H]1C` (single isomer, unassigned) [Compound 225, 4-((S or R)-4-((1R,5S)-3,8-diazabicyclo[3.2.1]octan-3-yl)-6-chloro-2-((R)-3-((2S,5S)-2,5-dimethylmorpholinyl)-2-methylpropoxy)-8-fluoroquinazolin-7-yl)naphthalenol formate] are 7.75, 6.01 and 7.77.
In the same order, the values of `CN1C[C@H](F)C[C@H]1COc1nc(N2CC3CCC(C2)N3)c2cnc(-c3cc(O)cc4ccccc34)c(F)c2n1` [Compound 131] are 7.43, 6.65 and 7.68.
On to `CN(CCCCN1CCN(CCCCN)CC1)CCCOc1nc(N2CC3CCC(C2)N3)c2cc(Cl)c(-c3cc(O)cc4ccccc34)c(F)c2n1` (single isomer, unassigned) [Compound 111, (S or R) 4-(2-(3-((4-(4-aminobutyl)piperazin-1-yl)butyl)(methyl)amino)propoxy)-4-((1R,5S)-3,8-diazabicyclo[3.2.1]octan-3-yl)-6-chloro-8-fluoroquinazolin-7-yl)naphthalen-2-ol pentahydrochloride], for which the negative-log IC50 (pIC50) on KRAS_G12D and cRAF was 6.97; at KRAS_WT and SOS1, 5.95; at KRAS-G12D and SOS1 it was 7.65.
In the same order, the values of `Oc1cc(-c2c(Cl)cc3c(N4C[C@H]5CC[C@@H](C4)N5)nc(OCCCN4C[C@H]5C[C@@H]4CO5)nc3c2F)c2ccccc2c1` (single isomer, unassigned) [Compound 169, (R or S)-4-(2-(3-((1R,4R)-2-oxa-5-azabicyclo[2.2.1]heptan-5-yl)propoxy)-4-((1R,5S)-3,8-diazabicyclo[3.2.1]octan-3-yl)-6-chloro-8-fluoroquinazolin-7-yl)naphthalen-2-ol dihydrochloride] are 7.15, 5.73 and 7.41.
On the same counts, the results for `Oc1cc(-c2c(Cl)cc3c(N4CC5CCC(C4)N5)nc(OCCCN4C5CCC4COC5)nc3c2F)c2cc(F)ccc2c1` (single isomer, unassigned) [compound 252] are 7.32, 6.38 and 7.66.
On the same counts, the results for `CO[C@@H](COc1nc(N2CC3CCC(C2)N3)c2cc(Cl)c(-c3cc(O)cc4ccccc34)c(F)c2n1)CN1CCCC[C@H]1C` (single isomer, unassigned) [Compound 266, (R or S)-4-(4-((1R,5S)-3,8-diazacyclo[3.2.1]octan-3-yl)-6-chloro-8-fluoro-2-((R)-2-methoxy-3-((R)-2-methylpiperidin-1-yl)propoxy)quinazolin-7-yl)naphthalen-2-ol diformate] are 6.13, < 5.00 and 6.76.
On to `CN1CCC[C@H]1COc1nc(N2CC3CCC(C2)N3)c2cc(F)c(-c3cc(O)cc4ccccc34)c(F)c2n1` [Compound 160, 4-(4-((1R,5S)-3,8-diazabicyclo[3.2.1]octan-3-yl)-6,8-difluoro-2-((S)-1-methylpyrrolidin-2-yl)methoxy)quinazolin-7-yl)naphthalen-2-ol dihydrochloride], for which the pIC50 on KRAS_G12D and cRAF was 7.49; on KRAS_WT and SOS1 it was 6.41; on KRAS-G12D and SOS1 it was 7.56.
In the same order, the values of `CN(C)C1CN(c2nc(N3CC4CCC(C3)N4)c3cc(Cl)c(-c4cc(O)cc5cccc(Cl)c45)c(F)c3n2)C1` (single isomer, unassigned) [Compound 65b, 4-((R or S)-4-((1R,5S)-3,8-diazabicyclo[3.2.1]octan-3-yl)-6-chloro-2-(3-(dimethylamino)azetidin-1-yl)-8-fluoroquinazolin-7-yl)-5-chloronaphthalen-2-ol] are 6.36, 6.57 and 7.07.
With `CC(C)(COc1nc(N2CC3CCC(C2)N3)c2cc(Cl)c(-c3cc(O)cc4ccccc34)c(F)c2n1)CN1CCCC1` (single isomer, unassigned) [Compound 102, 4-((S or R)-4-((1R,5S)-3,8-diazabicyclo[3.2.1]octan-3-yl)-6-chloro-2-(2,2-dimethyl-3-(pyrrolidin-1-yl)propoxy)-8-fluoroquinazolin-7-yl)naphthalen-2-ol dihydrochloride], the pIC50 on KRAS_G12D and cRAF is 7.41; on KRAS_WT and SOS1, 5.96; on KRAS-G12D and SOS1, 7.70.
On the same counts, the results for `CN(C)CCCOc1nc(N2C[C@H]3CC[C@@H](C2)N3)c2cnc(-c3cc(O)cc4ccccc34)c(F)c2n1` [Compound 82, 4-(4-((1R,5S)-3,8-diazabicyclo[3.2.1]octan-3-yl)-2-(3-(dimethylamino)propoxy)-8-fluoropyrido[4,3-d]pyrimidin-7-yl)naphthalen-2-ol] are 6.99, 5.81 and 7.67.
In the same order, the values of `CN(C)C1CN(c2nc(N3CC4(CCNCC4)C3)c3cc(Cl)c(-c4cc(O)cc5ccccc45)c(F)c3n2)C1` (single isomer, unassigned) [Compound 10a, (R or S)-4-(6-chloro-2-(3-(dimethylamino)azetidin-1-yl)-8-fluoro-4-(2,7-diazaspiro[3.5]nonan-2-yl)quinazolin-7-yl)naphthalen-2-ol] are 5.49, 4.99 and 6.11.
Consider `CC1OCCN(CCCOc2nc(N3CC4CCC(C3)N4)c3cc(Cl)c(-c4cc(O)cc5ccccc45)c(F)c3n2)C1C` (single isomer, unassigned) [Compound 265a, 4-((R or S)-4-((1R,5S)-3,8-diazabicyclo[3.2.1]octan-3-yl)-6-chloro-2-(3-((2R or 2S, 3S or 3R)-2,3-dimethylmorpholinyl)propoxy)-8-fluoroquinazolin-7-yl)naphthalen-2-ol diformate], for which the negative-log IC50 (pIC50) is 6.54 on KRAS_G12D and cRAF; 5.23 on KRAS_WT and SOS1; 7.04 on KRAS-G12D and SOS1.
In the same order, the values of `CN(C)C1CN(c2nc(N3CC4(CNC4)C3)c3cc(Cl)c(-c4cc(O)cc5ccccc45)c(F)c3n2)C1` (single isomer, unassigned) [Compound 7a, (R or S)-4-(6-chloro-2-(3-(dimethylamino)azetidin-1-yl)-8-fluoro-4-(2,6-diazaspiro[3.3]heptan-2-yl)quinazolin-7-yl)naphthalen-2-ol] are 5.48, 4.80 and 6.56.
